Laboratory results from paper PMC7838058 (Acta Pharmaceutica Sinica. B, 2020).

Assays:
in vitro = settings: human, Caco-2
SD rats = settings: 100 mg/kg by gavage every 8 h for 7 days, means ± SEM, n = 8

For `COCCc1ccc(OCC(O)CNC(C)C)cc1` (centres unmarked) [metoprolol], the Papp A→B at 120 min, 2 μmol/L (in vitro) was 13.1 ± 0.65 ×10⁻⁶ cm/s.

In the case of `CC(=O)Nc1ccc(NC(=O)c2ccc([N+](=O)[O-])o2)cc1` [1H, N-(4-Acetamidophenyl)-5-nitrofuran-2-carboxamide], the “Serum Cl” value (SD rats) is reported as 101.7 ± 1.3 mmol/L.
